Data as given in patent US6087334A, “Anti-diabetic peptides” (Amylin Pharmaceuticals, Inc., priority 1998, dated 2000).
Like-named read-outs stand apart in the source and are kept apart here. Where no end group is shown, it is not given here.

Columns and labels:
[1] = test system: gastric emptying in conscious rats; conditions: for Inhibition of gastric emptying (in words): conscious rat model
Source text: Peptide compounds of the present invention may be evaluated for amylin agonist activity using the methods of measuring the rate of gastric emptying disclosed in, for example, Young et al., Diabetologia, 38(6):642-648 (1995). In a phenol red method, which is described in Example D below, conscious rats receive by gavage an a caloric gel containing methyl cellulose and a phenol red indicator. Twenty minutes after gavage, animals are anesthetized using halothane, the stomach exposed and clamped at the pyloric and lower esophageal sphincters, removed and opened into an alkaline solution. Stomach content may be derived from the intensity of the phenol red in the alkaline solution, measured by absorbance at a wavelength of 560 nm. In a tritiated glucose method, conscious rats are gavaged with tritiated glucose in water. The rats are gently restrained by the tail, the tip of which is anesthetized using lidocaine. Tritium in the plasma separated from tail blood is collected at various timepoints and detected in a beta counter. Test compounds are normally administered about one minute before gavage.
Phenol Red Gastric Emptying Assay:
Gastric emptying was measured using a modification (Plourde et al., Life Sci. 53:857-862 (1993)) of the original method of Scarpignato et al. (Arch. Int. Pharmacodyn. Ther. 246:286-295 (1980)). Conscious rats received by gavage. 1.5 mL of an a caloric gel containing 1.5% methyl cellulose (M-0262, Sigma Chemical Co., St. Louis, Mo.) and 0.05% phenol red indicator. Twenty minutes after gavage, rats were anesthetized using 5% halothane, the stomach exposed and clamped at the pyloric and lower esophageal sphincters using artery forceps, removed and opened into an alkaline solution which was made up to a fixed volume. Stomach content was derived from the intensity of the phenol red in the alkaline solution, measured by absorbance at a wavelength of 560 nm. […] In other experiments, particulate gastric contents were centrifuged to clear the solution for absorbance measurements. Where the diluted gastric contents remained turbid, the spectroscopic absorbance due to phenol red was derived as the difference between that present in alkaline versus acidified dilutent.
In separate experiments on 7 rats, the stomach and small intestine were both excised and opened into an alkaline solution. […] Percent gastric emptying contents remaining=(absorbance at 20 min)/(absorbance at 0 min). For those compounds for which ED50 data is presented, dose response curves for gastric emptying were fitted to a 4-parameter logistic model using a least-squares iterative routine (ALLFIT, v2.7, NIH, Bethesda, Md.) to derive ED50 s. Because ED50 is log-normally distributed, it is expressed ± standard error of the logarithm. Pairwise comparisons were performed using one-way analysis of variance and the Student-Newman-Keuls multiple comparisons test (Instat v2.0, GraphPad Software, San Diego, Calif.) using P<0.05 as the level of significance.
As a reference point for dose response studies, rat amylin (Bachem, Torrance, Calif.) dissolved in 0.15M saline, was administered as a 0.1 mL subcutaneous bolus in doses of 0, 0.01, 0.1, 1, 10 or 100 μg 5 minutes before gavage in Harlan Sprague Dawley (non-diabetic) rats fasted 20 hours and diabetic BB rats fasted 6 hours.

[2] = in vivo in rats, rabbits and humans with Paget's disease; cited from earlier work

## Adrenomedullin (YRQSMNNFQGLRSFGCRFGTCTVQKLAHQIYQFTDKDKDNVAPRSKISPQGY; ends and bridges not checked; cysteine pairing not given here; UniProt P35318 95-146, looked up)
[1]; highest doses (100 μg)
  Inhibition of gastric emptying (in words): does not inhibit gastric emptying

## amylin (KCNTATCATQRLANFLVHSSNNFGAILSSTNVGSNTY-NH2; not fully specified (bridges); cysteine pairing not given here; UniProt P10997 34-70, looked up)
[2]
  Lowering of plasma calcium: up to 20%
[1]; dose response
  Inhibition of gastric emptying (in words): dose-dependently inhibit gastric emptying

## rat amylin
[1]; dose response
  Inhibition of gastric emptying (in words): dose-dependent suppression of gastric emptying
[1]; diabetic BB rats fasted 6 hours, subcutaneous bolus 5 minutes before gavage
  ED50 for inhibition of gastric emptying: 2.2 µg
[1]; diabetic rats, 10 μg subcutaneous
  Suppression of gastric emptying: complete
[1]; inhibition of gastric emptying, conscious rats, phenol red, 20 min after gavage
  Example D ED50: 0.26 µg
[1]; normal HSD rats, 1 μg subcutaneous
  Suppression of gastric emptying: complete

## rat calcitonin (CGNLSTCMLGTYTQDLNKFHTFPQTSIGVGAP; ends and bridges not checked; cysteine pairing not given here; UniProt P01257 85-116, looked up)
[1]; dose response
  Inhibition of gastric emptying (in words): dose-dependently inhibit gastric emptying

## salmon calcitonin
[1]; dose response
  Inhibition of gastric emptying (in words): dose-dependently inhibit gastric emptying
